# In paper PMC10017042 (Science Advances, 2023):
# Several values for one entry are separate records, joined by “and”; a condition that tells them apart may be missing. Equal entries are not always repeated. Where two headings read alike, the source gives them in different places.
# How the values were obtained:
# [1] = tested on: HIV-1; conditions: for Change in inducible reservoir size: day 0 versus day 42; for TILDA reservoir, cells with multiply spliced HIV-RNA detectable per million CD4+ T-cells, >1year / TILDA reservoir, cells with multiply spliced HIV-RNA detectable per million CD4+ T-cells, Day 42 / TILDA reservoir, cells with multiply spliced HIV-RNA detectable per million CD4+ T-cells, Day 0, 0 hour: individual participants, one value each; for TILDA reservoir, cells with multiply spliced HIV-RNA detectable per million CD4+ T-cells, >1year: >1 year after end of treatment; for TILDA reservoir, cells with multiply spliced HIV-RNA detectable per million CD4+ T-cells, Day 0, 0 hour: pretreatment baseline
# Method: Here, the measurement from the cells obtained >1 year after the last visit was used.
# The frequency of CD4^+ T cells expressing MS HIV-1 RNA was determined using TILDA with some modifications to the protocol described previously by our group ([68]). Briefly, total CD4^+ T cells were isolated from PBMCs by negative magnetic selection using EasySep CD4^+ Human CD4^+ T Cell Enrichment kit ([…] Technologies). Following isolation, 1.5 × 10^6 CD4^+ T cells/ml were rested in complete RPMI 1640 for 5 to 8 hours before 12 hours of stimulation with PMA (100 ng/ml) and ionomycin (1 μg/ml) (both from Sigma-Aldrich). After stimulation, CD4^+ T cells were washed and resuspended in serum-free RPMI 1640. Cells were counted and serially diluted accordingly: 1.8 × 10^6 cells/ml, 9 × 10^5 cells/ml, 3 × 10^5 cells/ml, and 1 × 10^5 cells/m. […] In the preamplification reaction, 10 μl of the cell suspension from each dilution was dispensed into 24 to 48 wells of a 96-well plate containing 2 μl of one-step RT-PCR enzyme (Qiagen), 10 μl of 5× one-step RT-PCR buffer (Qiagen), 10 μl of Triton X-100 (0.3%), 0.25 μl of RNAsin (40 U/μl), 2 μl of dNTPs (10 mM each), 1 μl of tat1.4 forward primer (20 μM) and rev reverse primer (20 μM) (as published), and nuclease-free water to a final reaction volume of 50 μl. The one-step RT-PCR was run using the following thermocycling conditions: 50°C for 30 min, 95°C for 15 min, followed by 25 cycles of 95°C for 1 min, 55°C for 1 min, and 72°C for 2 min, and a final extension at 72°C for 5 min. After preamplification, 2 μl of the products was used as input for the real-time PCR to detect tat/rev MS HIV-1 RNA in a final reaction volume of 20 μl, which consisted of 5 μl of 4× TaqMan Fast Advanced Master mix (Thermo Fisher Scientific), 0.4 μl of tat2.0 forward primer, rev reverse primer (each at 20 μM), and MS tat/rev probe (5 μM). The real-time PCR was performed using the following program: 50°C for 5 min, 95°C for 20 s, followed by 45 cycles of 95°C for 3 s and 60°C for 30 s. Positive wells at each dilution were recorded and used to determine the frequency of cells expressing tat/rev MS HIV-1 RNA by the maximum likelihood method.
# [2] = Clinical safety: adverse events (CTCAE version 4.0) and treatment adjustments; type: in vivo, human; conditions: for Participants who stopped treatment: 14-day intervention, seven participants per arm
# Method: Hematological parameters and kidney and liver function were monitored before treatment and on days 7, 14, and 42. At each study visit, participants were clinically assessed by the study physician and safety assessments were performed. All participant-reported AE and SAE were evaluated in relation to VPA and pyrimethamine. Severity was graded according to the Common Terminology Criteria for Adverse Events (CTCAE) version 4.0. In the study protocol, a number of stopping rules were defined including a prespecified interim analysis after the inclusion of 14 participants focusing on the number of participants discontinuing study medication during the intervention phase, CD4^+ T cell count <200 cells/μl, possibly drug-related SAE/AE ≥ grade 4, or AIDS-related illness (Centers for Disease Control category C events).
smiles,measurement,setting,value
CCCC(CCC)C(=O)O [valproic acid],Change in inducible reservoir size,[1],remained stable
same,"TILDA reservoir, cells with multiply spliced HIV-RNA detectable per million CD4+ T-cells, >1year",[1]; listed as VPA,2.5 per million CD4+ T-cells and 25.5 per million CD4+ T-cells and 286.2 per million CD4+ T-cells and 2.2 per million CD4+ T-cells and 19.0 per million CD4+ T-cells
same,"TILDA reservoir, cells with multiply spliced HIV-RNA detectable per million CD4+ T-cells, Day 42",[1]; listed as VPA,26.0 per million CD4+ T-cells and 12.7 per million CD4+ T-cells and 1.2 per million CD4+ T-cells and 12.9 per million CD4+ T-cells
same,"TILDA reservoir, cells with multiply spliced HIV-RNA detectable per million CD4+ T-cells, Day 0, 0 hour",[1]; listed as VPA,12.5 per million CD4+ T-cells and 100.7 per million CD4+ T-cells and 326.5 per million CD4+ T-cells and 2.5 per million CD4+ T-cells and 17.1 per million CD4+ T-cells and 3.4 per million CD4+ T-cells
same,Participants who stopped treatment,[2],one
CCc1nc(N)nc(N)c1-c1ccc(Cl)cc1 [pyrimethamine],Median inducible reservoir (TILDA),[1]; after treatment (day 42),10.0 cells per million CD4+ T cells
same,Median inducible reservoir (TILDA),[1]; before treatment (day 0),15.1 cells per million CD4+ T cells
same,Change in inducible reservoir size,[1],do not indicate a significant change
same,"TILDA reservoir, cells with multiply spliced HIV-RNA detectable per million CD4+ T-cells, >1year",[1]; listed as PYR,19.3 per million CD4+ T-cells and 91.8 per million CD4+ T-cells and 13.9 per million CD4+ T-cells and 6.1 per million CD4+ T-cells and 22.2 per million CD4+ T-cells and 15.2 per million CD4+ T-cells
same,"TILDA reservoir, cells with multiply spliced HIV-RNA detectable per million CD4+ T-cells, Day 42",[1]; listed as PYR,8.8 per million CD4+ T-cells and 122.8 per million CD4+ T-cells and 9.0 per million CD4+ T-cells and 1.6 per million CD4+ T-cells and 22.9 per million CD4+ T-cells
same,"TILDA reservoir, cells with multiply spliced HIV-RNA detectable per million CD4+ T-cells, Day 0, 0 hour",[1]; listed as PYR,2.7 per million CD4+ T-cells and 109.8 per million CD4+ T-cells and 16.9 per million CD4+ T-cells and 11.5 per million CD4+ T-cells and 15.1 per million CD4+ T-cells and 20.1 per million CD4+ T-cells and 2.8 per million CD4+ T-cells
same,Adverse events experienced on pyrimethamine (monotherapy and combination arms) of all AEs,[2]; 6-week study duration,84 of 103
same,Grade 3 adverse events (number),[2]; 6-week study duration,two
same,Participants who stopped treatment,[2],one
